Measured values taken from ChEMBL document CHEMBL3885861, “Open TG-GATES”.

Organism: Rattus norvegicus
Test: Open TG-GATES - Regimen: Single
Format: toxicity, organism-based, Sprague-Dawley
Set-up: regimen Single, gender Male, age 6 weeks
Conditions: in vivo, po, route gavage; for APTT / Bas / Eos / Fbg / Hb / Ht / Lym / MCH / MCHC / MCV / Mono / Neu / PT / Plat / Ret / WBC: tissue Blood; for KIDNEY_L / KIDNEY_R / KIDNEY_TOTAL: tissue Kidney; for LIVER: tissue Liver; for ALP / ALT / AST / BUN / CRE / Ca / DBIL / GLC / IP / K / LDH / Na / PL / RALB / TBIL / TC / TG / TP / gamma-GTP: tissue Plasma
[1] = 30 mg/kg, 3 h, dose level Middle
[2] = 30 mg/kg, 6 h, dose level Middle
[3] = 30 mg/kg, 9 h, dose level Middle
[4] = 30 mg/kg, 24 h, dose level Middle
[5] = 100 mg/kg, 3 h, dose level High
[6] = 100 mg/kg, 6 h, dose level High
[7] = 100 mg/kg, 9 h, dose level High
[8] = 100 mg/kg, 24 h, dose level High

CN(C)CCCN1c2ccccc2CCc2ccc(Cl)cc21 [CLOMIPRAMINE]
APTT [1]: 16.4 s
Bas [1]: 0.2%
Eos [1]: 0.6%
Fbg [1]: 254 mg/dL
Hb [1]: 14.2 g/dL
Ht [1]: 43.6%
Lym [1]: 71.2%
MCH [1]: 21 pg
MCHC [1]: 32.6%
MCV [1]: 64.5 fL
Mono [1]: 2.8%
Neu [1]: 24%
PT [1]: 13.6 s
Plat [1]: 115.5 x10_4/uL
Ret [1]: 7.9%
WBC [1]: 95.4 x10_2/uL
KIDNEY_L [1]: 1 g
KIDNEY_R [1]: 1 g
KIDNEY_TOTAL [1]: 1.9 g
LIVER [1]: 9.7 g
ALP [1]: 1675.2 IU/L
ALT [1]: 38.4 IU/L
AST [1]: 77.8 IU/L
BUN [1]: 9.8 mg/dL
CRE [1]: 0.2 mg/dL
Ca [1]: 10.8 mg/dL
DBIL [1]: 0.016 mg/dL
GLC [1]: 187.8 mg/dL
IP [1]: 9.6 mg/dL
K [1]: 4 meq/L
LDH [1]: 96 IU/L
Na [1]: 141 meq/L
PL [1]: 145.4 mg/dL
RALB [1]: 2.5 g/dL
TBIL [1]: 0.062 mg/dL
TC [1]: 75.2 mg/dL
TG [1]: 78.8 mg/dL
TP [1]: 5.2 g/dL
gamma-GTP [1]: 1 IU/L
TERMINAL_BW [2]: 214.2 g
APTT [2]: 15.9 s
Bas [2]: 0.2%
Eos [2]: 0.8%
Fbg [2]: 241.2 mg/dL
Hb [2]: 14.1 g/dL
Ht [2]: 43.9%
Lym [2]: 78.2%
MCH [2]: 20.2 pg
MCHC [2]: 32.2%
MCV [2]: 62.8 fL
Mono [2]: 2.6%
Neu [2]: 17.2%
PT [2]: 13.7 s
Plat [2]: 114.1 x10_4/uL
Ret [2]: 7.6%
WBC [2]: 82.3 x10_2/uL
KIDNEY_L [2]: 1 g
KIDNEY_R [2]: 1 g
KIDNEY_TOTAL [2]: 2 g
LIVER [2]: 9.2 g
ALP [2]: 1672.6 IU/L
ALT [2]: 39.2 IU/L
AST [2]: 73.8 IU/L
BUN [2]: 7.2 mg/dL
CRE [2]: 0.2 mg/dL
DBIL [2]: 0.02 mg/dL
GLC [2]: 186.4 mg/dL
IP [2]: 9.9 mg/dL
K [2]: 4.2 meq/L
LDH [2]: 75.4 IU/L
Na [2]: 141.4 meq/L
PL [2]: 134.6 mg/dL
RALB [2]: 2.5 g/dL
TBIL [2]: 0.068 mg/dL
TC [2]: 74.4 mg/dL
TG [2]: 55.8 mg/dL
TP [2]: 5.3 g/dL
gamma-GTP [2]: 1.2 IU/L
TERMINAL_BW [3]: 211.3 g
APTT [3]: 17.1 s
Bas [3]: 0%
Eos [3]: 1.2%
Fbg [3]: 273.6 mg/dL
Hb [3]: 13.9 g/dL
Ht [3]: 42.6%
Lym [3]: 77.8%
MCH [3]: 20.4 pg
MCHC [3]: 32.6%
MCV [3]: 62.6 fL
Mono [3]: 2.2%
Neu [3]: 17.8%
PT [3]: 13.8 s
Plat [3]: 124.6 x10_4/uL
Ret [3]: 7.7%
WBC [3]: 83.2 x10_2/uL
KIDNEY_L [3]: 1 g
KIDNEY_R [3]: 0.9 g
KIDNEY_TOTAL [3]: 1.9 g
LIVER [3]: 8.5 g
ALP [3]: 1468.8 IU/L
ALT [3]: 36.2 IU/L
AST [3]: 71.8 IU/L
BUN [3]: 7.4 mg/dL
CRE [3]: 0.2 mg/dL
Ca [3]: 10.5 mg/dL
DBIL [3]: 0.024 mg/dL
GLC [3]: 174 mg/dL
IP [3]: 10.5 mg/dL
K [3]: 4.1 meq/L
LDH [3]: 86.4 IU/L
Na [3]: 140.6 meq/L
PL [3]: 143 mg/dL
RALB [3]: 2.6 g/dL
TBIL [3]: 0.076 mg/dL
TC [3]: 83.4 mg/dL
TG [3]: 34.2 mg/dL
TP [3]: 5.4 g/dL
gamma-GTP [3]: 1 IU/L
TERMINAL_BW [4]: 231.8 g
APTT [4]: 16.9 s
Bas [4]: 0%
Eos [4]: 0.6%
Fbg [4]: 247.6 mg/dL
Ht [4]: 41.2%
Lym [4]: 81.6%
MCH [4]: 20.6 pg
MCHC [4]: 32.3%
MCV [4]: 63.9 fL
Mono [4]: 2.6%
Neu [4]: 14%
PT [4]: 13.8 s
Plat [4]: 116.6 x10_4/uL
Ret [4]: 7.1%
WBC [4]: 83.8 x10_2/uL
KIDNEY_L [4]: 1 g
KIDNEY_R [4]: 1 g
KIDNEY_TOTAL [4]: 2.1 g
LIVER [4]: 10.5 g
ALP [4]: 2253 IU/L
ALT [4]: 44.2 IU/L
AST [4]: 76.8 IU/L
BUN [4]: 13.2 mg/dL
CRE [4]: 0.2 mg/dL
Ca [4]: 10.9 mg/dL
DBIL [4]: 0.028 mg/dL
GLC [4]: 179 mg/dL
IP [4]: 8 mg/dL
K [4]: 4.1 meq/L
LDH [4]: 93.8 IU/L
Na [4]: 141.4 meq/L
PL [4]: 159 mg/dL
RALB [4]: 2.6 g/dL
TBIL [4]: 0.062 mg/dL
TC [4]: 80.2 mg/dL
TG [4]: 115.2 mg/dL
TP [4]: 5.5 g/dL
gamma-GTP [4]: 1.2 IU/L
TERMINAL_BW [5]: 215.5 g
APTT [5]: 16.9 s
Bas [5]: 0%
Eos [5]: 0.8%
Fbg [5]: 257.8 mg/dL
Hb [5]: 14.1 g/dL
Ht [5]: 43.3%
Lym [5]: 77.8%
MCH [5]: 21.2 pg
MCHC [5]: 32.6%
MCV [5]: 64.9 fL
Mono [5]: 3.4%
Neu [5]: 17.2%
PT [5]: 13.5 s
Plat [5]: 125.6 x10_4/uL
Ret [5]: 8%
WBC [5]: 69.8 x10_2/uL
KIDNEY_L [5]: 1 g
KIDNEY_R [5]: 0.9 g
KIDNEY_TOTAL [5]: 1.9 g
LIVER [5]: 10.1 g
ALP [5]: 1835 IU/L
ALT [5]: 42.8 IU/L
AST [5]: 76.6 IU/L
BUN [5]: 7.4 mg/dL
CRE [5]: 0.1 mg/dL
Ca [5]: 10.5 mg/dL
DBIL [5]: 0.036 mg/dL
GLC [5]: 188.8 mg/dL
IP [5]: 9.6 mg/dL
K [5]: 3.9 meq/L
LDH [5]: 116.6 IU/L
Na [5]: 142.2 meq/L
PL [5]: 147 mg/dL
RALB [5]: 2.5 g/dL
TBIL [5]: 0.068 mg/dL
TC [5]: 73.8 mg/dL
TG [5]: 85.4 mg/dL
TP [5]: 5.3 g/dL
gamma-GTP [5]: 1 IU/L
TERMINAL_BW [6]: 210.3 g
APTT [6]: 17.8 s
Bas [6]: 0%
Eos [6]: 1%
Fbg [6]: 276 mg/dL
Hb [6]: 14.2 g/dL
Ht [6]: 44%
Lym [6]: 75.6%
MCH [6]: 21.3 pg
MCHC [6]: 32.2%
MCV [6]: 66.2 fL
Mono [6]: 2.8%
Neu [6]: 20%
PT [6]: 13.9 s
Plat [6]: 125.1 x10_4/uL
Ret [6]: 8.2%
WBC [6]: 69.9 x10_2/uL
KIDNEY_L [6]: 1 g
KIDNEY_R [6]: 1 g
KIDNEY_TOTAL [6]: 2 g
LIVER [6]: 9.2 g
ALP [6]: 1949.8 IU/L
ALT [6]: 40.6 IU/L
AST [6]: 76.2 IU/L
BUN [6]: 6.8 mg/dL
CRE [6]: 0.1 mg/dL
Ca [6]: 10.4 mg/dL
DBIL [6]: 0.042 mg/dL
GLC [6]: 187.4 mg/dL
IP [6]: 9.7 mg/dL
K [6]: 4.1 meq/L
LDH [6]: 103.8 IU/L
Na [6]: 142.8 meq/L
PL [6]: 134.6 mg/dL
RALB [6]: 2.5 g/dL
TBIL [6]: 0.064 mg/dL
TC [6]: 71.4 mg/dL
TG [6]: 53 mg/dL
TP [6]: 5.2 g/dL
gamma-GTP [6]: 1 IU/L
TERMINAL_BW [7]: 208.4 g
APTT [7]: 16.6 s
Bas [7]: 0%
Eos [7]: 1%
Fbg [7]: 270.4 mg/dL
Hb [7]: 14.1 g/dL
Ht [7]: 43.6%
Lym [7]: 71.2%
MCH [7]: 21 pg
MCHC [7]: 32.3%
MCV [7]: 65.1 fL
Mono [7]: 2%
Neu [7]: 25.2%
PT [7]: 13.9 s
Plat [7]: 144.8 x10_4/uL
Ret [7]: 8.1%
WBC [7]: 72.8 x10_2/uL
KIDNEY_L [7]: 1 g
KIDNEY_R [7]: 1 g
KIDNEY_TOTAL [7]: 2 g
LIVER [7]: 9 g
ALP [7]: 1702 IU/L
ALT [7]: 32.4 IU/L
AST [7]: 71.2 IU/L
BUN [7]: 6.4 mg/dL
CRE [7]: 0.1 mg/dL
Ca [7]: 10.2 mg/dL
DBIL [7]: 0.04 mg/dL
GLC [7]: 194.6 mg/dL
IP [7]: 9.8 mg/dL
K [7]: 3.7 meq/L
LDH [7]: 91 IU/L
Na [7]: 142.6 meq/L
PL [7]: 137.4 mg/dL
RALB [7]: 2.5 g/dL
TBIL [7]: 0.064 mg/dL
TC [7]: 72.8 mg/dL
TG [7]: 39 mg/dL
TP [7]: 5.2 g/dL
gamma-GTP [7]: 1 IU/L
TERMINAL_BW [8]: 217.7 g
APTT [8]: 19.3 s
Bas [8]: 0.2%
Eos [8]: 1%
Fbg [8]: 278.8 mg/dL
Hb [8]: 14.1 g/dL
Ht [8]: 43.4%
Lym [8]: 78.2%
MCH [8]: 20.6 pg
MCHC [8]: 32.5%
MCV [8]: 63.5 fL
Mono [8]: 2.6%
Neu [8]: 17.4%
PT [8]: 13.5 s
Plat [8]: 144.2 x10_4/uL
Ret [8]: 7.4%
WBC [8]: 91.7 x10_2/uL
KIDNEY_L [8]: 1 g
KIDNEY_R [8]: 1 g
KIDNEY_TOTAL [8]: 2 g
LIVER [8]: 9.6 g
ALP [8]: 1855 IU/L
ALT [8]: 43 IU/L
AST [8]: 69.8 IU/L
BUN [8]: 15.4 mg/dL
CRE [8]: 0.2 mg/dL
Ca [8]: 10.8 mg/dL
DBIL [8]: 0.046 mg/dL
GLC [8]: 180.6 mg/dL
IP [8]: 8.3 mg/dL
K [8]: 4 meq/L
LDH [8]: 92 IU/L
Na [8]: 141.8 meq/L
PL [8]: 168.4 mg/dL
RALB [8]: 2.7 g/dL
TBIL [8]: 0.056 mg/dL
TC [8]: 98.2 mg/dL
TG [8]: 96.2 mg/dL
TP [8]: 5.7 g/dL
gamma-GTP [8]: 1 IU/L
